What was measured:
[1] = Two-photon absorption cross-sectional area, Z scan method, Examples B; format: physicochemical; conditions: tetrahydrofuran solution, femtosecond laser, 780 nm to 960 nm (710 nm to 990 nm)
Description: Each of Compounds (1), (2), (57), (58), (59), (60), (3), (4), (61), (62), (25), (26), (63), (64), (65), (66), (45), (67), (68), (69), (70), (71), (72), (5), (9), (13), (19), (27), (31), (32), (34), (36), (39), (44), (53) and (55) was dissolved in tetrahydrofuran, and the resultant tetrahydrofuran solution was measured for its two-photon absorption cross-sectional area according to the below-described evaluation method therefor.
This measurement was performed under the following conditions:
Sample concentration: 10^−2 mol to 10^−5 mol (this range covering optimal concentrations of the samples (at which measurements are easily performed));
Light path length of cell: 10 mm (corresponding to the inner diameter of cuvette);
Light: variable femtosecond laser having a wavelength of 710 nm to 990 nm; and
Light power: 10 mW to 800 mW.
The following compound (73) was dissolved in tetrahydrofuran, and the resultant solution was measured for its two-photon absorption cross-sectional area according to the below-described evaluation method therefor.
The following compound (74) was dissolved in tetrahydrofuran, and the resultant solution was measured for its two-photon absorption cross-sectional area according to the below-described evaluation method therefor.
[drawing 68] [Method for Measuring Two-Photon Absorption Cross-Sectional Area]
(§1) FIG. 8 schematically illustrates a system of the method.
(§2) Measuring light source: femtosecond titanium sapphire laser
(§3) Repetition frequency: 80 MHz
(§4) Measuring method: Z scan method
(§5) Inner diameter of cuvette: 10 mm
(§6) Light power for measurement: about 500 mW
(§7) Collection diameter: 40 μm to 50 μm
(§8) A quartz cell filled with each sample solution was placed in a light path through which a focused laser beam was passed. Then, the cell was moved along the light path for Z-scan measurement.
The sample solution was measured for its transmittance, and the thus-obtained value and the following theoretical equation (I) were used to determine a nonlinear absorption coefficient of the sample. T=[ln(1+I0L0β)]/I0L0β (I)
where T denotes a transmittance (%), I0 denotes an excited light density [GW/cm^2], L0 denotes a sample cell length [cm], and β denotes a nonlinear absorption coefficient [cm/GW].
The thus-determined nonlinear absorption coefficient and the following equation (ii) were used to calculate a two-photon absorption cross-sectional area σ. Note that the unit of σ is GM (1 GM=1×10^−50 cm^4·s·photon^−1). σ=1,000×hvβ/[…] (ii)
(§9) where h denotes the Planck's constant [J·s], v denotes a frequency of an incident laser beam [s^−1], NA denotes the Avogadoro's number, and C denotes a concentration of a solution [mol/L].

[2] = Two-photon absorption cross-sectional area, Z scan method, Examples A (800 nm); format: physicochemical; conditions: tetrahydrofuran solution, femtosecond titanium sapphire laser
Description: Each of the above-given compounds Nos. 1, 2, 4, 5, 6, 7, 10, 11, 15, 16, 17, 20, 24, 25, 27 and 28 of the present invention was dissolved in tetrahydrofuran, and the resultant solution was measured for its two-photon absorption cross-sectional area according to the below-described evaluation method therefor.
The following compound (29) was dissolved in tetrahydrofuran, and the resultant solution was measured for its two-photon absorption cross-sectional area according to the below-described evaluation method therefor.
The following compound (30) was dissolved in tetrahydrofuran, and the resultant solution was measured for its two-photon absorption cross-sectional area according to the below-described evaluation method therefor.
[drawing 66] [Method for Measuring Two-Photon Absorption Cross-Sectional Area]
as §1, §2, §3, §4
Wavelength of light source: 800 nm
as §5, §6, §7, §8
The sample solution was measured for its transmittance, and the thus-obtained value and the following theoretical equation (1) were used to determine a nonlinear absorption coefficient of the sample. T=[ln(1+I0L0β)]/I0L0β (1) where T denotes a transmittance (%), I0 denotes an excited light density [GW/cm^2], L0 denotes a sample cell length [cm], and β denotes a nonlinear absorption coefficient [cm/GW].
The thus-determined nonlinear absorption coefficient and the following equation (2) were used to calculate a two-photon absorption cross-sectional area σ. Note that the unit of σ is GM (1 GM=1×10^−50 cm^4·s·photon^−1). σ=1,000×hvβ/[…] (2)
as §9

| Structure (SMILES) | Two-photon absorption cross-sectional area [1] | Two-photon absorption cross-sectional area [2] |
| --- | --- | --- |
| CCCCCCC1(CCCCCC)c2cc(-c3c4nc(c(-c5cc(OC)c(OC)c(OC)c5)c5ccc(cc6nc(c(-c7cc(OC)c(OC)c(OC)c7)c7ccc3[nH]7)C=C6)[nH]5)C=C4)ccc2-c2ccc(-c3c4nc(c(-c5cc(OC)c(OC)c(OC)c5)c5ccc([nH]5)c(/C=C/c5ccc(N(c6ccccc6)c6ccccc6)cc5)c5nc(c(-c6cc(OC)c(OC)c(OC)c6)c6ccc3[nH]6)C=C5)C=C4)cc21 [(67)] | 990 GM | – |
| CCCCCCC1(CCCCCC)c2cc(C3=C4C=CC(=N4)C(c4cc(OC)c(OC)c(OC)c4)=c4ccc5[n]4[Ni][n]4c(ccc43)C(c3cc(OC)c(OC)c(OC)c3)=C3C=CC(=N3)C=5/C=C/c3ccc(N(c4ccccc4)c4ccccc4)cc3)ccc2-c2ccc(C3=c4ccc5[n]4[Ni][n]4c(ccc4C(c4cc(OC)c(OC)c(OC)c4)=C4C=CC3=N4)C=C3C=CC(=N3)C=5c3cc(OC)c(OC)c(OC)c3)cc21 [(68)] | 1,020 GM | – |
| CCCCCCC1(CCCCCC)c2cc(C3=C4C=CC(=N4)C(c4cc(OC)c(OC)c(OC)c4)=c4ccc5[n]4[Cu][n]4c(ccc43)C(c3cc(OC)c(OC)c(OC)c3)=C3C=CC(=N3)C=5/C=C/c3ccc(N(c4ccccc4)c4ccccc4)cc3)ccc2-c2ccc(C3=c4ccc5[n]4[Cu][n]4c(ccc4C(c4cc(OC)c(OC)c(OC)c4)=C4C=CC3=N4)C=C3C=CC(=N3)C=5c3cc(OC)c(OC)c(OC)c3)cc21 [(69)] | 920 GM | – |
| CCCCCCC1(CCCCCC)c2cc(C3=C4C=CC(=N4)C(c4cc(OC)c(OC)c(OC)c4)=c4ccc5[n]4[Co][n]4c(ccc43)C(c3cc(OC)c(OC)c(OC)c3)=C3C=CC(=N3)C=5/C=C/c3ccc(N(c4ccccc4)c4ccccc4)cc3)ccc2-c2ccc(C3=c4ccc5[n]4[Co][n]4c(ccc4C(c4cc(OC)c(OC)c(OC)c4)=C4C=CC3=N4)C=C3C=CC(=N3)C=5c3cc(OC)c(OC)c(OC)c3)cc21 [(70)] | 900 GM | – |
| CC(C)(C)c1c2nc(c(C(C)(C)C)c3ccc([nH]3)c(C(C)(C)C)c3nc(c(C(C)(C)C)c4ccc1[nH]4)C=C3)C=C2 [(73), reference compound] | ≈0 GM | – |
| COc1ccc(-c2cc(C3=C(c4cc(-c5ccc(OC)cc5)sc4OC)C(F)(F)C(F)(F)C3(F)F)c(OC)s2)cc1 [(74), reference compound] | 15 GM | – |
| CC1=C(C)c2nc1c(-c1ccc(C#N)cc1)c1[nH]c(c(C)c1C)c(-c1ccc(/C=C/c3ccc(N(c4ccccc4)c4ccc(C)cc4)cc3)cc1)c1nc(c(-c3ccc(C#N)cc3)c3[nH]c(c(C)c3C)c2-c2ccc(/C=C/c3ccc(N(c4ccccc4)c4ccc(C)cc4)cc3)cc2)C(C)=C1C [compound 5] | – | 1,480 GM |
| Cc1ccc(N(c2ccc(C)cc2)c2ccc(/C=C/c3ccc(C4=c5ccc6[n]5[Ni][n]5c(ccc5C(c5cccc(C7OCC(C)(C)CO7)c5)=C5C=CC4=N5)C(Cl)=C4C=CC(=N4)C=6c4cccc(C5OCC(C)(C)CO5)c4)cc3)cc2)cc1 [compound 6] | – | 730 GM |
| CCCCCCc1ccc(N(c2ccc(-c3c4nc(c(-c5c(C)cc(C)cc5C)c5[nH]c(cc6nc(c(-c7c(C)cc(C)cc7C)c7[nH]c3c(CC)c7C)C(C)=C6CC)c(CC)c5C)C(C)=C4CC)cc2)c2ccc(-c3c4nc(c(-c5c(C)cc(C)cc5C)c5[nH]c(cc6nc(c(-c7c(C)cc(C)cc7C)c7[nH]c3c(CC)c7C)C(C)=C6CC)c(CC)c5C)C(C)=C4CC)cc2)cc1 [compound 25] | – | 1,020 GM |
| CCC1=C(CC)c2nc1c(Br)c1[nH]c(c(CC)c1CC)c(-c1ccc([N+](=O)[O-])cc1)c1nc(c(-c3ccc4c(c3)C(C)(C)c3cc(-c5c6nc(c(-c7ccc([N+](=O)[O-])cc7)c7[nH]c(c(Br)c8nc(c(-c9ccc([N+](=O)[O-])cc9)c9[nH]c5c(CC)c9CC)C(CC)=C8CC)c(CC)c7CC)C(CC)=C6CC)ccc3-4)c3[nH]c(c(CC)c3CC)c2-c2ccc([N+](=O)[O-])cc2)C(CC)=C1CC [compound 27] | – | 870 GM |

From patent US8207330B2, “Two-photon absorption material and application thereof” (Ricoh Company, Ltd., priority 2008, dated 2012)
